Laboratory results reported in ChEMBL document CHEMBL4219041, “Improving oral bioavailability of cyclic peptides by N-methylation” (Bioorg Med Chem, 2018).
Square brackets hold non-standard residues; d marks the D form. Peptide text beside a SMILES is read from it. dNMeW = CN[C@H](Cc1c[nH]c2ccccc12)C(=O)O; NMeF = CN[C@@H](Cc1ccccc1)C(=O)O; NMeK = CN[C@@H](CCCCN)C(=O)O

Key:
[1] = Efflux ratio of apparent permeability from basolateral to apical over apical to basolateral side in human Caco2 cells; type: ADME, cell-based; settings: Caco-2
[2] = Oral bioavailability in rat at 10 mg/kg; type: ADME, organism-based; settings: in vivo

`C[C@@H]1NC(=O)[C@H](C)NC(=O)[C@@H](C)N(C)C(=O)[C@H](C)N(C)C(=O)[C@H](C)NC(=O)[C@H](C)NC1=O` gave an efflux ratio [1] of 2.05.
Work on `C[C@@H]1NC(=O)[C@H](C)NC(=O)[C@@H](C)N(C)C(=O)[C@H](C)NC(=O)[C@H](C)N(C)C(=O)[C@H](C)NC1=O` yielded an efflux ratio [1] of 1.93.
`C[C@@H]1NC(=O)[C@H](C)N(C)C(=O)[C@H](C)N(C)C(=O)[C@H](C)NC(=O)[C@H](C)N(C)C(=O)[C@@H](C)N(C)C1=O` showed an efflux ratio [1] of 1.97.
`C[C@@H]1NC(=O)[C@H](C)N(C)C(=O)[C@H](C)N(C)C(=O)[C@H](C)NC(=O)[C@@H](C)N(C)C(=O)[C@H](C)N(C)C1=O` gave an efflux ratio [1] of 0.08.
`C[C@@H](O)[C@@H]1NC(=O)[C@H](CCCCN)N(C)C(=O)[C@@H](Cc2c[nH]c3ccccc23)N(C)C(=O)[C@H](Cc2ccccc2)NC(=O)[C@@H]2CCCN2C(=O)[C@H](Cc2ccccc2)N(C)C1=O` (cyclo(F[dNMeW][NMeK]T[NMeF]P)) gave a bioavailability [2] of 10%.
